Results from patent EP4806894A1, “TNAP INHIBITORY COMPOUND AND USE THEREOF” (Rednvia Co., Ltd., priority 2023, dated 2025).
pIC50: −log10 of the molar value. Where a name gives a salt, the structure may show the parent alone.

How the values were obtained:
saos-2 cells = assay: Anticalcification efficacy in saos-2 cells (osteogenic medium, Alizarin Red staining); assay type: cell-based; conditions: Homo sapiens, 168 h, test compound 1 µM, 7 days osteogenic medium, Alizarin Red absorbance 540 nm, read-out: calcification inhibition
Method in brief: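 Saos-2 cells at 80–90% confluence induced for 7 days in osteogenic medium (DMEM, 100 nM dexamethasone, 10 mM β-glycerophosphate, 0.05 mM ascorbic acid), compound (0.5, 1, 5, 10 […]) added with each medium change. Alizarin Red staining eluted with cetylpyridinium chloride, A540 read; inhibition taken against OM-only absorbance.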

TNAP = target: T1, TNAP (Homo sapiens, UniProt P05186); assay: TNAP inhibitory activity, colorimetric assay (alkaline phosphatase assay kit ab83369, pNPP substrate); assay type: biochemical; conditions: TNAP enzyme, 2 hours at room temperature, absorbance 405 nm
T1 sequence (P05186 18-502 limits assumed): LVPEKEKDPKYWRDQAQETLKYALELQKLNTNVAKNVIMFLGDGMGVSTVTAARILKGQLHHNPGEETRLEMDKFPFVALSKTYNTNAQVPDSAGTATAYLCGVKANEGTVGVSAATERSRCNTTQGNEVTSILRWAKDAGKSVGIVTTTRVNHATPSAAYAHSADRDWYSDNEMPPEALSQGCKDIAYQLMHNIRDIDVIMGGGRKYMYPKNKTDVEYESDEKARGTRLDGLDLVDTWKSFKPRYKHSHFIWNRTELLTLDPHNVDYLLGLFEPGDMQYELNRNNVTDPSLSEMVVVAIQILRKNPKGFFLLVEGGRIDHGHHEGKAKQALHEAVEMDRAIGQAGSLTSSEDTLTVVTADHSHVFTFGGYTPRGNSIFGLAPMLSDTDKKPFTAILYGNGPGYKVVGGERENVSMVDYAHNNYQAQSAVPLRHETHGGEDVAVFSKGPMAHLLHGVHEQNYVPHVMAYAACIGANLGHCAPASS

## COc1ccc(-c2cnn(C(C)c3nc(C)no3)c2)cc1S(=O)(=O)Nc1cnc2c(c1)C(=O)NCC2 (stereo not drawn) [Example 70, 2-methoxy-5-(1-(1-(3-methyl-1,2,4-oxadiazole-5-yl)ethyl)-1H-pyrazole-4-yl)-N-(5-oxo-5,6,7,8-tetrahydro-1,6-naphthyridine-3-yl)benzenesulfonamide]
saos-2 cells
  inhibition at 1 µM: ≥ 50%
TNAP
  pIC50: 6.00 to 7.00

## COc1ccc(-c2cnn(C(C)c3nc(-c4ccc(F)cc4)no3)c2)cc1S(=O)(=O)Nc1cnc2c(c1)C(=O)NCC2 (stereo not drawn) [Example 71, 5-(1-(1-(3-(4-fluorophenyl)-1,2,4-oxadiazole-5-yl)ethyl)-1H-pyrazole-4-yl)-2-methoxy-N-(5-oxo-5,6,7,8-tetrahydro-1,6-naphthyridine-3-yl)benzenesulfonamide]
saos-2 cells
  inhibition at 1 µM: < 0%
TNAP
  pIC50: ≤ 6.00

## COc1ccc(-c2cnn(C(C)C)c2)cc1S(=O)(=O)Nc1cnc2c(c1)C(=O)NCC2 [Example 72, 5-(1-isopropyl-1H-pyrazole-4-yl)-2-methoxy-N-(5-oxo-5,6,7,8-tetrahydro-1,6-naphthyridine-3-yl)benzenesulfonamide]
saos-2 cells
  inhibition at 1 µM: ≥ 50%
TNAP
  pIC50: 7.00 to 8.00

## COc1ccc(-c2cnn(C(F)(F)F)c2)cc1S(=O)(=O)Nc1cnc2c(c1)C(=O)NCC2 [Example 73, 2-methoxy-N-(5-oxo-5,6,7,8-tetrahydro-1,6-naphthyridine-3-yl)-5-(1-(trifluoromethyl)-1H-pyrazole-4-yl)benzenesulfonamide]
saos-2 cells
  inhibition at 1 µM: ≥ 50%
TNAP
  pIC50: 6.00 to 7.00

## COc1ccc(-c2cnn(C3CC3)c2)cc1S(=O)(=O)Nc1cnc2c(c1)C(=O)NCC2 [Example 74, 5-(1-cyclopropyl-1H-pyrazole-4-yl)-2-methoxy-N-(5-oxo-5,6,7,8-tetrahydro-1,6-naphthyridine-3-yl)benzenesulfonamide]
saos-2 cells
  inhibition at 1 µM: ≥ 50%
TNAP
  pIC50: 6.00 to 7.00

## COc1ccc(-c2cnn(S(C)(=O)=O)c2)cc1S(=O)(=O)Nc1cnc2c(c1)C(=O)NCC2 [Example 75, 2-methoxy-5-(1-(methylsulfonyl)-1H-pyrazole-4-yl)-N-(5-oxo-5,6,7,8-tetrahydro-1,6-naphthyridine-3-yl)benzenesulfonamide]
saos-2 cells
  inhibition at 1 µM: ≥ 50%
TNAP
  pIC50: 6.00 to 7.00

## COc1ccc(-c2cnn(C3CCOCC3)c2)cc1S(=O)(=O)Nc1cnc2c(c1)C(=O)NCC2 [Example 76, 2-methoxy-N-(5-oxo-5,6,7,8-tetrahydro-1,6-naphthyridine-3-yl)-5-(1-(tetrahydro-2H-pyran-4-yl)-1H-pyrazole-4-yl)benzenesulfonamide]
saos-2 cells
  inhibition at 1 µM: ≥ 50%
TNAP
  pIC50: 6.00 to 7.00

## COc1ccc(-c2ccc(F)nc2)cc1S(=O)(=O)Nc1cnc2c(c1)C(=O)NCC2 [Example 77, 5-(6-fluoropyridine-3-yl)-2-methoxy-N-(5-oxo-5,6,7,8-tetrahydro-1,6-naphthyridine-3-yl)benzenesulfonamide]
saos-2 cells
  inhibition at 1 µM: ≥ 50%
TNAP
  pIC50: 6.00 to 7.00

## COc1ccc(-c2cnc(N)nc2C(F)(F)F)cc1S(=O)(=O)Nc1cnc2c(c1)C(=O)NCC2 [Example 78, 5-(2-amino-4-(trifluoromethyl)pyrimidine-5-yl)-2-methoxy-N-(5-oxo-5,6,7,8-tetrahydro-1,6-naphthyridine-3-yl)benzenesulfonamide]
saos-2 cells
  inhibition at 1 µM: < 0%
TNAP
  pIC50: ≤ 6.00

## COc1ccc(-c2cnn(C3COC3)c2)cc1S(=O)(=O)Nc1cnc2c(c1)C(=O)NCC2 [Example 79, 2-methoxy-5-(1-(oxetane-3-yl)-1H-pyrazole-4-yl)-N-(5-oxo-5,6,7,8-tetrahydro-1,6-naphthyridine-3-yl)benzenesulfonamide]
saos-2 cells
  inhibition at 1 µM: ≥ 50%
TNAP
  pIC50: 6.00 to 7.00

## COc1ccc(-c2cnn(CCO)c2)cc1S(=O)(=O)Nc1cnc2c(c1)C(=O)NCC2 [Example 80, 5-(1-(2-hydroxyethyl)-1H-pyrazole-4-yl)-2-methoxy-N-(5-oxo-5,6,7,8-tetrahydro-1,6-naphthyridine-3-yl)benzenesulfonamide]
saos-2 cells
  inhibition at 1 µM: ≥ 50%
TNAP
  pIC50: 6.00 to 7.00

## COc1ccc(-c2cn(C(C)C)nc2C(F)(F)F)cc1S(=O)(=O)Nc1cnc2c(c1)C(=O)NCC2 [Example 81, 5-(1-isopropyl-3-(trifluoromethyl)-1H-pyrazole-4-yl)-2-methoxy-N-(5-oxo-5,6,7,8-tetrahydro-1,6-naphthyridine-3-yl)benzenesulfonamide]
saos-2 cells
  inhibition at 1 µM: ≥ 50%
TNAP
  pIC50: 7.00 to 8.00

## CCn1cc(-c2ccc(OC)c(S(=O)(=O)Nc3cnc4c(c3)C(=O)NCC4)c2)c(C(F)(F)F)n1 [Example 82, 5-(1-ethyl-3-(trifluoromethyl)-1H-pyrazole-4-yl)-2-methoxy-N-(5-oxo-5,6,7,8-tetrahydro-1,6-naphthyridine-3-yl)benzenesulfonamide]
saos-2 cells
  inhibition at 1 µM: ≥ 50%
TNAP
  pIC50: ≥ 8.00

## COc1ccc(-c2cnoc2)cc1S(=O)(=O)Nc1cnc2c(c1)C(=O)NCC2 [Example 83, 5-(isoxazole-4-yl)-2-methoxy-N-(5-oxo-5,6,7,8-tetrahydro-1,6-naphthyridine-3-yl)benzenesulfonamide]
saos-2 cells
  inhibition at 1 µM: ≥ 50%
TNAP
  pIC50: 7.00 to 8.00

## COc1ccc(-c2c(C)noc2C)cc1S(=O)(=O)Nc1cnc2c(c1)C(=O)NCC2 [Example 84, 5-(3,5-dimethylisoxazole-4-yl)-2-methoxy-N-(5-oxo-5,6,7,8-tetrahydro-1,6-naphthyridine-3-yl)benzenesulfonamide]
saos-2 cells
  inhibition at 1 µM: ≥ 50%
TNAP
  pIC50: 7.00 to 8.00

## COc1ccc(-c2cnn(C3CCN(C(=O)OC(C)(C)C)CC3)c2)cc1S(=O)(=O)Nc1cnc2c(c1)C(=O)NCC2 [Example 85, tert-butyl 4-(4-(4-methoxy-3-(N-(5-oxo-5,6,7,8-tetrahydro-1,6-naphthyridine-3-yl)sulfamoyl)phenyl)-1H-pyrazole-1-yl)piperidine-1-carboxylate]
saos-2 cells
  inhibition at 1 µM: < 0%
TNAP
  pIC50: 6.00 to 7.00

## COc1ccc(-c2cnn(C3CCNCC3)c2)cc1S(=O)(=O)Nc1cnc2c(c1)C(=O)NCC2 [Example 86, 2-methoxy-N-(5-oxo-5,6,7,8-tetrahydro-1,6-naphthyridine-3-yl)-5-(1-(piperidine-4-yl)-1H-pyrazole-4-yl)benzenesulfonamide hydrochloride]
saos-2 cells
  inhibition at 1 µM: < 0%
TNAP
  pIC50: 6.00 to 7.00

## COc1ccc(Br)cc1S(=O)(=O)Nc1cnc2c(c1)C(=O)N(C)CC2 [Example 87, 5-bromo-2-methoxy-N-(6-methyl-5-oxo-5,6,7,8-tetrahydro-1,6-naphthyridine-3-yl)benzenesulfonamide]
saos-2 cells
  inhibition at 1 µM: < 0%
TNAP
  pIC50: 6.00 to 7.00

## COc1ccc(Br)cc1S(=O)(=O)Nc1cnc2c(c1)CN(C(=O)OC(C)(C)C)CC2 [Example 88, tert-butyl 3-((5-bromo-2-methoxyphenyl)sulfonamido)-7,8-dihydro-1,6-naphthyridine-6(5H)-carboxylate]
saos-2 cells
  inhibition at 1 µM: ≥ 50%
TNAP
  pIC50: 6.00 to 7.00

## COc1ccc(OC)c(S(=O)(=O)Nc2cnc3c(c2)CN(C(=O)OC(C)(C)C)CC3)c1 [Example 89, tert-butyl 3-((2,5-dimethoxyphenyl)sulfonamido)-7,8-dihydro-1,6-naphthyridine-6(5H)-carboxylate]
saos-2 cells
  inhibition at 1 µM: ≥ 50%
TNAP
  pIC50: 7.00 to 8.00

## COc1ccc(F)cc1S(=O)(=O)Nc1cnc2c(c1)CNCC2 [Example 90, 5-fluoro-2-methoxy-N-(5,6,7,8-tetrahydro-1,6-naphthyridine-3-yl)benzenesulfonamide hydrochloride]
saos-2 cells
  inhibition at 1 µM: 0 to 50%
TNAP
  pIC50: 6.00 to 7.00

## O=S(=O)(Nc1cnc2c(c1)CNCC2)c1cc(F)ccc1Br [Example 91, 5-fluoro-2-bromo-N-(5,6,7,8-tetrahydro-1,6-naphthyridine-3-yl)benzenesulfonamide hydrochloride]
saos-2 cells
  inhibition at 1 µM: < 0%
TNAP
  pIC50: ≤ 6.00

## COc1ccc(Cl)cc1S(=O)(=O)Nc1cnc2c(c1)CNCC2 [Example 92, 5-chloro-2-methoxy-N-(5,6,7,8-tetrahydro-1,6-naphthyridine-3-yl)benzenesulfonamide hydrochloride]
saos-2 cells
  inhibition at 1 µM: ≥ 50%
TNAP
  pIC50: 7.00 to 8.00

## COc1ccc(Br)cc1S(=O)(=O)Nc1cnc2c(c1)CNCC2 [Example 93, 5-bromo-2-methoxy-N-(5,6,7,8-tetrahydro-1,6-naphthyridine-3-yl)benzenesulfonamide hydrochloride]
saos-2 cells
  inhibition at 1 µM: ≥ 50%
TNAP
  pIC50: 7.00 to 8.00

## COc1ccc(OC)c(S(=O)(=O)Nc2cnc3c(c2)CNCC3)c1 [Example 94, 2,5-dimethoxy-N-(5,6,7,8-tetrahydro-1,6-naphthyridine-3-yl)benzenesulfonamide hydrochloride]
saos-2 cells
  inhibition at 1 µM: ≥ 50%
TNAP
  pIC50: 7.00 to 8.00

## CCOC(=O)N1CCc2ncc(NS(=O)(=O)c3cc(F)ccc3OC)cc2C1 [Example 95, ethyl3-((5-fluoro-2-methoxyphenyl)sulfonamido)-7,8-dihydro-1,6-naphthyridine-6(5H)-carboxylate]
saos-2 cells
  inhibition at 1 µM: ≥ 50%
TNAP
  pIC50: 6.00 to 7.00

## CCOC(=O)N1CCc2ncc(NS(=O)(=O)c3cc(Cl)ccc3OC)cc2C1 [Example 96, ethyl3-((5-chloro-2-methoxyphenyl)sulfonamido)-7,8-dihydro-1,6-naphthyridine-6(5H)-carboxylate]
saos-2 cells
  inhibition at 1 µM: ≥ 50%
TNAP
  pIC50: 7.00 to 8.00
